Read-outs that look alike come from different tables or passages of the source.
Legend:
Test in all cases: MIC, broth microdilution (CLSI), substance alone or ATB combined with compound at 4 or 8 μg/mL
ABA UFR152 = format: cell-based, A. baumannii; settings: with Example 15 @4 μg/ml
Description: (§1) Compounds of the present invention were assessed against genotyped bacterial strains alone or in combination with an antibacterial. In the assays, MICs of said compounds or combination of antibiotics with fixed concentrations of said compounds (4 or 8 μg/mL) were determined by the broth microdilution method according to the Clinical Laboratory Standards Institute (CLSI-M7-A7). Briefly, compounds alone according to the invention were prepared in DMSO and spotted (2 μL each) on sterile polystyrene plates (Corning, 3788). Combinations of compounds and antibiotics dilutions were prepared in DMSO and spotted (1 μL each) on sterile polystyrene plates (Corning, 3788). Log phase bacterial suspensions were adjusted to a final density of 5·10^5 CFU/mL in cation-adjusted Mueller-Hinton broth (ca-MHB; Becton-Dickinson and Company) and added to each well (98 μL). Assays including Fosfomycin were supplemented with 25 μg/ml of Glucose-6-phosphate. Microplates were incubated for 16-20 h at 35° C. in ambient air. The MIC of the compounds was defined as the lowest concentration of said compounds that prevented bacterial growth as read by visual inspection. The MIC of ATB at each compound concentration was defined as the lowest concentration of ATB that prevented bacterial growth as read by visual inspection.

ABA UFR156 = format: cell-based, A. baumannii
Description: as §1

ABA UFR151 = format: cell-based, A. baumannii
Description: as §1

ABA UFR158 = format: cell-based, A. baumannii; settings: with Example 6 @8 μg/ml
Description: as §1

ABA UFR160 = format: cell-based, A. baumannii; settings: with Example 6 @8 μg/ml
Description: as §1

ABA UFR155 = format: cell-based, A. baumannii
Description: as §1

ABA UFR153 = format: cell-based, A. baumannii
Description: as §1

ECO UFR39 = format: cell-based, E. coli; settings: Escherichia coli, ECO UFR39
In short: (§2)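 Potentiation format: antibiotic dilution series run with test compound held at 4 or 8 μg/mL, alongside compound-alone MICs. Broth microdilution per CLSI in ca-MHB, 16-20 h at 35° C.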

ECO 190317 = format: cell-based, E. coli; settings: Escherichia coli, ECO 190317
In short: as §2

SPN 49619 = format: cell-based, S. pneumoniae; settings: Streptococcus pneumoniae, SPN 49619
In short: as §2

SAU 29213 = format: cell-based, S. aureus; settings: Staphylococcus aureus
In short: as §2

[1] = Acinetobacter baumannii, antibiotic alone, read-out: MIC ATB alone
[2] = antibiotic alone, read-out: MIC ATB alone

SMILES: C[C@@H](O)[C@H]1C(=O)N2C(C(=O)O)=C(S[C@@H]3CN[C@H](C(=O)N(C)C)C3)[C@H](C)[C@H]12 [MEM, Meropenem]
- MIC ATB combined with Example 15 @4 μg/ml (ABA UFR152): 1 µg/mL
- MIC (ABA UFR156; [1]): 64 µg/mL
- MIC ATB combined with Example 1 @8 μg/ml (ABA UFR156; with Example 1 @8 μg/ml): 64 µg/mL
- MIC ATB combined with Example 3 @8 μg/ml (ABA UFR156; with Example 3 @8 μg/ml): 8 µg/mL
- MIC ATB combined with Example 6 @8 μg/ml (ABA UFR156; with Example 6 @8 μg/ml): 16 µg/mL
- MIC ATB combined with Example 9 @4 μg/ml (ABA UFR156; with Example 9 @4 μg/ml): 64 µg/mL
- MIC ATB combined with Example 10 @8 μg/ml (ABA UFR156; with Example 10 @8 μg/ml): 8 µg/mL
- MIC ATB combined with Example 11 @8 μg/ml (ABA UFR156; with Example 11 @8 μg/ml): 64 µg/mL
- MIC ATB combined with Example 12 @8 μg/ml (ABA UFR156; with Example 12 @8 μg/ml): 32 µg/mL
- MIC ATB combined with Example 15 @4 μg/ml (ABA UFR156; with Example 15 @4 μg/ml): 64 µg/mL
- MIC (ABA UFR151; [1]): 0.5 µg/mL
- MIC ATB combined with Example 1 @8 μg/ml (ABA UFR151; with Example 1 @8 μg/ml): <=0.25 μg/mL
- MIC ATB combined with Example 3 @8 μg/ml (ABA UFR151; with Example 3 @8 μg/ml): <=0.25 μg/mL
- MIC ATB combined with Example 6 @8 μg/ml (ABA UFR151; with Example 6 @8 μg/ml): <=0.25 μg/mL
- MIC ATB combined with Example 9 @4 μg/ml (ABA UFR151; with Example 9 @4 μg/ml): <=0.25 μg/mL
- MIC ATB combined with Example 10 @8 μg/ml (ABA UFR151; with Example 10 @8 μg/ml): <=0.25 μg/mL
- MIC ATB combined with Example 11 @8 μg/ml (ABA UFR151; with Example 11 @8 μg/ml): 0.5 µg/mL
- MIC ATB combined with Example 12 @8 μg/ml (ABA UFR151; with Example 12 @8 μg/ml): <=0.25 μg/mL
- MIC ATB combined with Example 15 @4 μg/ml (ABA UFR151; with Example 15 @4 μg/ml): 0.5 µg/mL
- MIC ATB combined with Example 6 @8 μg/ml (ABA UFR158): <0.25 µg/mL
- MIC ATB combined with Example 6 @8 μg/ml (ABA UFR160): <0.25 µg/mL
- MIC (ABA UFR155; [1]): 32 µg/mL
- MIC ATB combined with Example 1 @8 μg/ml (ABA UFR155; with Example 1 @8 μg/ml): 16 µg/mL
- MIC ATB combined with Example 3 @8 μg/ml (ABA UFR155; with Example 3 @8 μg/ml): 8 µg/mL
- MIC ATB combined with Example 6 @8 μg/ml (ABA UFR155; with Example 6 @8 μg/ml): 16 µg/mL
- MIC ATB combined with Example 9 @4 μg/ml (ABA UFR155; with Example 9 @4 μg/ml): 16 µg/mL
- MIC ATB combined with Example 10 @8 μg/ml (ABA UFR155; with Example 10 @8 μg/ml): 8 µg/mL
- MIC ATB combined with Example 11 @8 μg/ml (ABA UFR155; with Example 11 @8 μg/ml): 16 µg/mL
- MIC ATB combined with Example 12 @8 μg/ml (ABA UFR155; with Example 12 @8 μg/ml): 16 µg/mL
- MIC ATB combined with Example 15 @4 μg/ml (ABA UFR155; with Example 15 @4 μg/ml): 64 µg/mL
- MIC (ABA UFR153; [1]): 1 µg/mL
- MIC ATB combined with Example 1 @8 μg/ml (ABA UFR153; with Example 1 @8 μg/ml): 1 µg/mL
- MIC ATB combined with Example 3 @8 μg/ml (ABA UFR153; with Example 3 @8 μg/ml): <=0.25 μg/mL
- MIC ATB combined with Example 6 @8 μg/ml (ABA UFR153; with Example 6 @8 μg/ml): <0.25 µg/mL
- MIC ATB combined with Example 9 @4 μg/ml (ABA UFR153; with Example 9 @4 μg/ml): <=0.25 μg/mL
- MIC ATB combined with Example 10 @8 μg/ml (ABA UFR153; with Example 10 @8 μg/ml): <=0.25 μg/mL
- MIC ATB combined with Example 11 @8 μg/ml (ABA UFR153; with Example 11 @8 μg/ml): 1 µg/mL
- MIC ATB combined with Example 12 @8 μg/ml (ABA UFR153; with Example 12 @8 μg/ml): <=0.25 μg/mL
- MIC ATB combined with Example 15 @4 μg/ml (ABA UFR153; with Example 15 @4 μg/ml): <=0.25 μg/mL
- MIC (ECO UFR39; [2]): 64 µg/mL
- MIC (ECO UFR39; substance alone, read-out: MIC): 64 µg/mL
- MIC (ECO 190317; [2]): 0.031 µg/mL
- MIC (ECO 190317; substance alone, read-out: MIC): 0.031 µg/mL
- MIC (SPN 49619; [2]): 0.063 µg/mL
- MIC (SPN 49619; substance alone, read-out: MIC): 0.063 µg/mL
- MIC (SAU 29213; MSSA): 0.125 µg/mL
- MIC (SAU 29213; antibiotic alone, SAU 29213, read-out: MIC ATB alone): 0.125 µg/mL
